From patent publication US20240308987A1, “SMALL MOLECULE INHIBITOR AGAINST NASOPHARYNGEAL CARCINOMA, PREPARATION METHOD AND APPLICATION THEREOF” (SHENZHEN BAY LABORATORY, priority 2021, published 2024) come the findings set out here.

Molecules are shown by their SMILES.

For this assay, the system named is C666-1 cells. Put plainly: C666-1 Cell Viability Assay (Resazurin cytotoxicity test). In kind it is cell-based. Conditions: Homo sapiens, C6661, EB virus-positive C666-1 cells, 72 hours treatment, 100-0.78 micromole/L, read-out: Inhibitory Rate. The method, then: In order to evaluate the inhibitory effect of the small molecular compound of the present disclosure on EBNA1 at the cellular level, a cytotoxicity test was performed.
As mentioned in the Background of the present disclosure, nasopharyngeal carcinoma is a kind of disease highly associated with latent infection of EB virus. EB virus in latent state only expresses limited proteins to maintain its genome replication, among which EBNA1 protein is an essential functional protein. Studies have confirmed that inhibition of EBNA1 can reduce the proliferation of the corresponding nasopharyngeal carcinoma cells or kill them. Therefore, EB virus-positive nasopharyngeal carcinoma tumor cells (C666-1 cells) are selected for test to verify the effect of the small molecular compound of the present disclosure.
During testing, 100 microliters of different cell lines were inoculated onto a transparent 96-well plate, and 5×10^3 cells were inoculated in each well for C666-1 cells. After the cells were cultured in an incubator under […] at 37° C. for 24 hours, 10 microliters of compound with a concentration ranging from 1 mmol/L to 7.8 micromol/L were added to each well (8 points, double dilution, the final concentration was 100-0.78 micromole/L), and treated in the incubator under carbon dioxide at 37° C. for 72 hours. Cell viability was assessed using the redox indicator Resazurin. After addition of 10 microliters of 600 micromole/liter Resazurin to each well and incubation at 37° C. for 3 hours. Using a Tecan microplate reader, the fluorescence signals were detected at an […]. A software was used to fit the inhibition curve and calculate half-maximal effect concentration (EC50). The selectivity of compound activity was assessed by comparing the EC50 values of EB virus-positive and EB virus-negative cell lines.
(The colour change of resazurin is a common sign of viable cells or microbes.)
As for `Cc1cncc(OCc2ccc(OC3CN(c4cccc(C(=O)O)c4-n4cccc4)C3)cc2)c1` [Example 3a, 3-(3-(4-((5-methylpyridin-3-yloxy)methyl)phenoxy)azetidin-1-yl)-2-(1H-pyrrol-1-yl) benzoic acid], the EC50 was more than 50 µM.
With `COC(=O)c1cccc(N2CC(Oc3ccc(COc4cnccn4)cc3)C2)c1-n1cccc1` [Example 13, methyl 3-(3-(4-((pyrazin-2-yloxy)methyl)phenoxy)azetidin-1-yl)-2-(1H-pyrrol-1-yl) benzoate], the EC50 was more than 50 µM.
Regarding `COC(=O)c1cccc(N2CC(Oc3ccc(COc4cccnc4)cc3C)C2)c1-n1cccc1` [Example 16, methyl 3-(3-(2-methyl-4-((pyridin-3-yloxy)methyl)phenoxy)azetidin-1-yl)-2-(1H-pyrrol-1-yl) benzoate], the EC50 fell in the range of 10 to 50 µM.
The figure for `COC(=O)c1cccc(N2CC(Oc3ccc(COc4ccncc4)cc3)C2)c1-n1cccc1` [Example 8, methyl 3-(3-(4-((pyridin-4-yloxy)methyl)phenoxy)azetidin-1-yl)-2-(1H-pyrrol-1-yl) benzoate] is 10 to 50 µM; for `O=C(NO)c1cccc(N2CC(Oc3ccc(COCc4cccnc4)cc3)C2)c1-n1cccc1` [Example 27b, N-Hydroxy-3-(3-(4-((pyridin-3-ylmethoxy)methyl)phenoxy)azetidin-1-yl)-2-(1H-pyrrol-1-yl)benzamide] it is less than 1 µM.
In the case of `CONC(=O)c1cccc(N2CC(Oc3ccc(NC(=O)Cc4cccnc4)cc3)C2)c1-c1ccccc1` [Example 45d, N-methoxy-6-(3-(4-(2-(pyridin-3-yl)acetamido)phenoxy)azetidin-1-yl)-[1,1′-biphenyl]-2-carboxamide] it was 10 to 50 µM.
On to `O=C(O)c1cccc(N2CC(Oc3ccc(COCc4cccnc4)cc3)C2)c1-n1cccc1` [Example 27a, 3-(3-(4-((pyridin-3-ylmethoxy)methyl)phenoxy)azetidin-1-yl)-2-(1H-pyrrol-1-yl) benzoic acid], for which the EC50 is more than 50 µM.
On to `COC(=O)c1cccc(N2CC(Oc3ccc(COc4ccn(C)n4)cc3)C2)c1-n1cccc1` [Example 32, methyl 3-(3-(4-(((1-methyl-1H-pyrazol-3-yl)oxy)methyl)phenoxy)azetidin-1-yl)-2-(1H-pyrrol-1-yl) benzoate], for which the EC50 was more than 50 µM.
`COC(=O)c1cccc(N2CC(Oc3ccc(NC(=O)Nc4cccnc4)cc3)C2)c1` [Example 50, methyl 3-(3-(4-(3-(pyridin-3-yl)ureido)phenoxy)azetidin-1-yl) benzoate]: the EC50 is 1 to 10 µM.
For `O=C(O)c1cccc(N2CC(Oc3ccc(COc4cnc5ccccc5c4)cc3)C2)c1-n1cccc1` [Example 9a, 2-(1H-pyrrol-1-yl)-3-(3-(4-((quinolin-3-yloxy)methyl)phenoxy)azetidin-1-yl) benzoic acid], the EC50 was more than 50 µM.
With `O=C(NO)c1cccc(N2CC(Oc3ccc(COc4cccnc4)cc3)C2)c1-c1ccccc1` [Example 17b, N-hydroxy-6-(3-(4-((pyridin-3-yloxy)methyl)phenoxy)azetidin-1-yl)-[1,1′-biphenyl]-2-carboxamide], the EC50 was in the range of 1 to 10 µM.
The figure for `O=C(Cc1ccc(OC2CN(c3cccc(C(=O)O)c3)C2)cc1)Nc1cccnc1` [Example 43a, 3-(3-(4-(2-oxo-2-(pyridin-3-ylamino)ethyl)phenoxy)azetidin-1-yl) benzoic acid] is 1 to 10 µM; for `COC(=O)c1cccc(N2CC(Oc3ccc(COc4ncccn4)cc3)C2)c1-n1cccc1` [Example 11, methyl 3-(3-(4-((pyrimidin-2-yloxy)methyl)phenoxy)azetidin-1-yl)-2-(1H-pyrrol-1-yl) benzoate] it is more than 50 µM.
The figure for `COC(=O)c1cccc(N2CC(Oc3ccc(NC(=O)Cc4cccnc4)c(F)c3)C2)c1-n1cccc1` [Example 52, methyl 3-(3-(3-fluoro-4-(2-(pyridin-3-yl)acetamido)phenoxy)azetidin-1-yl)-2-(1H-pyrrol-1-yl) benzoate] is less than 1 µM; for `COC(=O)c1cccc(N2CC(Oc3ccc(/C=C/c4cccnc4)cc3)C2)c1-n1cccc1` [Example 28, methyl (E)-3-(3-(4-(2-(pyridin-3-yl)vinyl)phenoxy)azetidin-1-yl)-2-(1H-pyrrol-1-yl) benzoate] it is more than 50 µM.
The figure for `O=C(Cc1cccnc1)Nc1ccc(OC2CN(c3cccc(C(=O)O)c3-n3cccc3)C2)cc1F` [Example 52a, 3-(3-(3-fluoro-4-(2-(pyridin-3-yl)acetamido)phenoxy)azetidin-1-yl)-2-(1H-pyrrol-1-yl) benzoic acid] is less than 1 µM; for `COC(=O)c1cccc(N2CC(Oc3ccc(COc4cnc5ccccc5c4)cc3)C2)c1-n1cccc1` [Example 9, methyl 2-(1H-pyrrol-1-yl)-3-(3-(4-((quinolin-3-yloxy)methyl)phenoxy)azetidin-1-yl) benzoate] it is more than 50 µM; for `O=C(Nc1ccc(OC2CN(c3cccc(C(=O)NO)c3-c3cccc(Cl)c3)C2)cc1)Nc1cccnc1` [Example 41b, 3′-chloro-N-hydroxy-6-(3-(4-(3-(pyridin-3-yl)ureido)phenoxy)azetidin-1-yl)-[1,1′-biphenyl]-2-carboxamide] it is less than 1 µM.
With `O=C(Nc1ccc(OC2CN(c3cccc(C(=O)O)c3-c3cccc(Cl)c3)C2)cc1)Nc1cccc(C(F)(F)F)c1` [Example 37a, 3′-chloro-6-(3-(4-(3-(3-(trifluoromethyl)phenyl)ureido)phenoxy)azetidin-1-yl)-[1,1′-biphenyl]-2-carboxylic acid], the EC50 is more than 50 µM.
Consider `O=C(NO)c1cccc(N2CC(Oc3ccc(/C=C/c4cccnc4)cc3)C2)c1-c1ccccc1` [Example 36b, (E)-N-hydroxy-6-(3-(4-(2-(pyridin-3-yl)vinyl)phenoxy)azetidin-1-yl)-[1,1′-biphenyl]-2-carboxamide], for which the EC50 was less than 1 µM.
The figure for `COC(=O)c1cccc(N2CC(Oc3ccc(NC(=O)Cc4cccnc4)c(F)c3)C2)c1-c1ccccc1` [Example 54, methyl 6-(3-(3-fluoro-4-(2-(pyridin-3-yl)acetamido)phenoxy)azetidin-1-yl)-[1,1′-biphenyl]-2-carboxylate] is 1 to 10 µM; for `COC(=O)c1cccc(N2CC(Oc3ccc(NC(=O)Cc4cccnc4)cc3)C2)c1-c1cccc(Cl)c1` [Example 48, methyl 3′-chloro-6-(3-(4-(2-(pyridin-3-yl)acetamido)phenoxy)azetidin-1-yl)-[1,1′-biphenyl]-2-carboxylate] it is less than 1 µM; for `COC(=O)c1cccc(N2CC(Oc3cccc(COc4cccnc4)c3)C2)c1-n1cccc1` [Example 21, methyl 3-(3-(3-((pyridin-3-yloxy)methyl)phenoxy)azetidin-1-yl)-2-(1H-pyrrol-1-yl) benzoate] it is 10 to 50 µM.
Take `COC(=O)c1cccc(N2CC(Oc3ccc(NC(=O)Cc4cccnc4)cc3)C2)c1` [Example 49, methyl 3-(3-(4-(2-(pyridin-3-yl)acetamido)phenoxy)azetidin-1-yl) benzoate]: the EC50 was in the range of 1 to 10 µM.
In the case of `COC(=O)c1cccc(N2CC(Oc3ccc(COc4ccsn4)cc3)C2)c1-n1cccc1` [Example 33, methyl 3-(3-(4-((isothiazol-3-yloxy)methyl)phenoxy)azetidin-1-yl)-2-(1H-pyrrol-1-yl) benzoate] it was more than 50 µM.
For the compound `O=C(Cc1ccc(OC2CN(c3cccc(C(=O)NO)c3-c3ccccc3)C2)cc1)Nc1cccnc1` [Example 40b, N-hydroxy-6-(3-(4-(2-oxo-2-(pyridin-3-ylamino)ethyl)phenoxy)azetidin-1-yl)-[1,1′-biphenyl]-2-carboxamide], the EC50 was less than 1 µM.
Regarding `COC(=O)c1cccc(N2CC(Oc3ccc(COc4cccnc4)cc3)C2)c1-c1cccc(Cl)c1` [Example 18, methyl 3′-chloro-6-(3-(4-((pyridin-3-yloxy)methyl)phenoxy)azetidin-1-yl)-[1,1′-biphenyl]-2-carboxylate], the EC50 lay within 1 to 10 µM.
In the case of `O=C(O)c1cccc(N2CC(Oc3ccc(/C=C/c4cccnc4)cc3)C2)c1-c1ccccc1` [Example 36a, (E)-6-(3-(4-(2-(pyridin-3-yl)vinyl)phenoxy)azetidin-1-yl)-[1,1′-biphenyl]-2-carboxylic acid] it was 10 to 50 µM; in that of `COC(=O)c1cccc(N2CC(Oc3ccc(N(C)C(=O)Nc4cccc(C#N)c4)cc3)C2)c1-n1cccc1` [Example 7, methyl 3-(3-(4-(3-(3-cyanophenyl)-1-methylureido)phenoxy)azetidin-1-yl)-2-(1H-pyrrol-1-yl) benzoate], 10 to 50 µM.
Regarding `O=C(NO)c1cccc(N2CC(Oc3ccc(CNc4cccnc4)cc3)C2)c1-c1ccccc1` [Example 39b, N-hydroxy-6-(3-(4-((pyridin-3-ylamino)methyl)phenoxy)azetidin-1-yl)-[1,1′-biphenyl]-2-carboxamide], the EC50 is less than 1 µM.
For the compound `COc1ccc(OCc2ccc(OC3CN(c4cccc(C(=O)O)c4-n4cccc4)C3)cc2)cn1` [Example 4a, 3-(3-(4-(((6-methoxypyridin-3-yl)oxy)methyl)phenoxy)azetidin-1-yl)-2-(1H-pyrrol-1-yl) benzoic acid], the EC50 is more than 50 µM.
